From patent publication US10221163B2 (priority 2015, dated 2019)
Like-named read-outs stand apart in the source and are kept apart here.

How the values were obtained:
[1] = test system: Pseudomonas aeruginosa efflux− (MB9799), IMP-1; format: cell-based; settings: concentration restoring susceptibility to imipenem at 2 μg/mL in the presence of a class A, C, D serine β-lactamase inhibitor closely related to relebactam
In short: (§1)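 Steps: add fixed imipenem and/or ceftazidime (usually CLSI breakpoint) and fixed AmpC-directed class A/C inhibitor to microbroth MIC wells; titrate MBL inhibitor; record concentration regaining susceptibility for each PAO1-derived strain; divide efflux+ by efflux− value.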

[2] = test system: Pseudomonas aeruginosa efflux+ (MB9798), IMP-1; format: cell-based; settings: concentration restoring susceptibility to imipenem at 2 μg/mL in the presence of a class A, C, D serine β-lactamase inhibitor closely related to relebactam
In short: as §1

VIM-1 = VIM-1 (Pseudomonas aeruginosa (strain ATCC 15692 / DSM 22644 / CIP 104116 / JCM 14847 / LMG 12228 / 1C / PRS 101 / PAO1), UniProt A0A0F7KYQ8); assay: biochemical; settings: CCF2-FA substrate, 30 pM enzyme, 2 hours at 25° C.
In short: (§2)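 Two-hour, 25° C incubation of enzyme with inhibitor and CCF2-FA (7-hydroxycoumarin–cephalosporin–fluorescein). Fluorescence read-out; IC50 via 4-parameter fit.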

[3] = test system: Serratia marcescens expressing IMP-1 (CL5741); format: cell-based; settings: IMP-1 strain CL5741, with imipenem 1 μg/ml, 95% inhibition of growth
In short: (§3)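 Colonies grown overnight on blood agar at 35° C were suspended in saline, diluted 1:100 into 1.1×CAMHB and dispensed. Imipenem was added to 1 μg/ml, then test compound. After 22 hours to 24 hours at 35° C, absorbance was recorded.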

[4] = test system: Escherichia coli expressing NDM-1 (CLB30005, CLB30016); format: cell-based; settings: NDM-1 strain, with imipenem 1 μg/ml, 95% inhibition of growth
In short: as §3

[5] = test system: Klebsiella pneumoniae expressing VIM-1 (IHMA599644); format: cell-based; settings: VIM-1 strain IHMA599644, with imipenem 1 μg/ml, 95% inhibition of growth
In short: as §3

[6] = test system: Pseudomonas aeruginosa MB9798 vs MB9799; settings: ratio MITC95 PA_9798/MITC95 PA_9799
In short: as §1

NDM-1 = NDM-1 (Klebsiella pneumoniae, UniProt C7C422); assay: biochemical; format: biochemical; settings: fluorescence assay, CCF2-FA substrate, 1 pM enzyme, 2 hours at 25° C.; read-out: NDM-1 IC50
In short: as §2

IMP-1 = IMP-1 (Serratia marcescens, UniProt P52699); assay: biochemical; format: biochemical; settings: fluorescence assay, CCF2-FA substrate, 2 pM enzyme, 2 hours at 25° C.; read-out: IMP-1 IC50
In short: as §2

[7] = fluorescence assay, read-out: VIM-1 IC50

IMP-1, sequence (P52699 whole entry, looked up, species assumed): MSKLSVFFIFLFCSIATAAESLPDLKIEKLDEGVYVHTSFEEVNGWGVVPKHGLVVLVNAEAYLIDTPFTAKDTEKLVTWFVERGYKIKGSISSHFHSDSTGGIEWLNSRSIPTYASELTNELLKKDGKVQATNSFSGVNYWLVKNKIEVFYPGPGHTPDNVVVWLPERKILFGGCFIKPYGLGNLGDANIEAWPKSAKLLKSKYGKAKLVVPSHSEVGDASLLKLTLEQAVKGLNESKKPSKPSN
NDM-1, sequence (C7C422 whole entry, looked up, species assumed): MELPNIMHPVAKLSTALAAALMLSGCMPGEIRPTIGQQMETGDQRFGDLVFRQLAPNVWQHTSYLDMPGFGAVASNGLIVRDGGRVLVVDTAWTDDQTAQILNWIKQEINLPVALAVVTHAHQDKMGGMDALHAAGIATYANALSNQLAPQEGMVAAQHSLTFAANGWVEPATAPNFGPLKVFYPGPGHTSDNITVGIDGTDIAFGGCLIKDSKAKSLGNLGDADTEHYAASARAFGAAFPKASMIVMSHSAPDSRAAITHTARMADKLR

SMILES	P. aeruginosa expressing IMP-1, efflux − (MB9799) MITC95 [1] [µM]	P. aeruginosa expressing IMP-1, efflux + (MB9798) MITC95 [2] [µM]	IC50 (VIM-1; VIM-1 IC50, fluorescence assay) [nM]	Serratia marcescens MITC95 [3] [µM]	Escherichia coli MITC95 [4] [µM]	Klebsiella pneumoniae MITC95 [5] [µM]	Efflux ratio [6]	IC50 (NDM-1) [nM]	IC50 (IMP-1) [nM]	IC50 (VIM-1; [7]) [nM]
Nc1nc2c(-c3ccc(S(=O)(=O)NC[C@@]4(N)CCNC4)c(S(N)(=O)=O)c3-c3nn[nH]n3)cccc2s1 [Example 367, (R)-4-(2-aminobenzo[d]thiazol-4-yl)-N1-((3-aminopyrrolidin-3-yl)methyl)-3-(2H-tetrazol-5-yl)benzene-1,2-disulfonamide]	1.563	0.7813	0.0975	1.563	1.563	3.125	0.50	0.0193	0.0766	
Nc1ccc(-c2ccc(S(=O)(=O)NC[C@]3(N)CCNC3)c(S(N)(=O)=O)c2-c2nn[nH]n2)cn1 [Example 368, (S)-4-(6-aminopyridin-3-yl)-N1-((3-aminopyrrolidin-3-yl)methyl)-3-(2H -tetrazol-5-yl)benzene-1,2-disulfonamide]	1.563	1.563	0.253	0.7813	0.7813	3.125	1.00	0.203	0.304	
Nc1ccc(-c2ccc(S(=O)(=O)NC[C@@]3(N)CCNC3)c(S(N)(=O)=O)c2-c2nn[nH]n2)cn1 [Example 369, (R)-4-(6-aminopyridin-3-yl)-N1-((3-aminopyrrolidin-3-yl)methyl)-3-(2H -tetrazol-5-yl)benzene-1,2-disulfonamide]	1.563	1.563	0.302	0.7813	0.3906	3.125	1.00	0.276	0.508	
NC[C@H](N)CNS(=O)(=O)c1ccc(-c2cccc3[nH]c(N)nc23)c(-c2nn[nH]n2)c1S(N)(=O)=O [Example 370, (S)-4-(2-amino-1H-benzo[d]imidazol-4-yl)-N1-(2,3-diaminopropyl)-3-(2H-tetrazol-5-yl)benzene-1,2-disulfonamide]	0.7813	0.7813	0.209	1.172	0.3906	1.563	1.00	0.0459	0.663	
NC[C@H](N)CNS(=O)(=O)c1ccc(-c2cccc3ccc(N)nc23)c(-c2nn[nH]n2)c1S(N)(=O)=O [Example 371, (S)-4-(2-aminoquinolin-8-yl)-N1-(2,3-diaminopropyl)-3-(2H-tetrazol-5-yl)benzene-1,2-disulfonamide]	1.563	1.563	0.188	3.125	0.7813	3.125	1.00	0.0807	0.289	
NC[C@H](N)CNS(=O)(=O)c1ccc(-c2cnc(N)s2)c(-c2nn[nH]n2)c1S(N)(=O)=O [Example 372, (S)-4-(2-aminothiazol-5-yl)-N1-(2,3-diaminopropyl)-3-(2H-tetrazol-5-yl)benzene-1,2-disulfonamide]	0.7813	1.563		1.563	1.563	3.125	2.00	0.575	1.27	0.914
NC[C@H](N)CNS(=O)(=O)c1ccc(-c2cnc3cc[nH]c3c2)c(-c2nn[nH]n2)c1S(N)(=O)=O [Example 373, (S)-N1-(2,3-diaminopropyl)-4-(1H-pyrrolo[3,2-b]pyridin-6-yl)-3-(2H-tetrazol-5-yl)benzene-1,2-disulfonamide]	1.563	1.563	0.121	1.563	0.3906	3.125	1.00	0.0516	0.495	
NC[C@@H](N)CNS(=O)(=O)c1ccc(-c2cccc3[nH]c(N)nc23)c(-c2nn[nH]n2)c1S(N)(=O)=O [Example 375, (R)-4-(2-amino-1H-benzo[d]imidazol-4-yl)-N1-(2,3-diaminopropyl)-3-(2H-tetrazol-5-yl)benzene-1,2-disulfonamide]	1.563	1.563	0.233	1.563	0.3906	1.563	1.00	0.0588	0.6	
NC[C@@H](N)CNS(=O)(=O)c1ccc(-c2cccc3ccc(N)nc23)c(-c2nn[nH]n2)c1S(N)(=O)=O [Example 376, (R)-4-(2-aminoquinolin-8-yl)-N1-(2,3-diaminopropyl)-3-(2H-tetrazol-5-yl)benzene-1,2-disulfonamide]	1.563	1.563	0.274	3.125	0.7813	3.125	1.00	0.0551	0.273	
NC[C@@H](N)CNS(=O)(=O)c1ccc(-c2cnc(N)s2)c(-c2nn[nH]n2)c1S(N)(=O)=O [Example 377, (R)-4-(2-aminothiazol-5-yl)-N1-(2,3-diaminopropyl)-3-(2H-tetrazol-5-yl)benzene-1,2-disulfonamide]	0.7813	1.563		1.563	0.7813	3.125	2.00	0.573	1.18	0.885
NC[C@@H](N)CNS(=O)(=O)c1ccc(-c2cnc3cc[nH]c3c2)c(-c2nn[nH]n2)c1S(N)(=O)=O [Example 378, (R)-N1-(2,3-diaminopropyl)-4-(1H-pyrrolo[3,2-b]pyridin-6-yl)-3-(2H-tetrazol-5-yl)benzene-1,2-disulfonamide]	1.563	3.125	0.0985	1.563	0.7813	3.125	2.00	0.0511	0.354	
NCc1nc2c(-c3ccc(S(=O)(=O)N[C@@H](CN)CO)c(S(N)(=O)=O)c3-c3nn[nH]n3)cccc2[nH]1 [Example 379, (S)—N^1-(1-amino-3-hydroxypropan-2-yl)-4-(2-(aminomethyl)-1H-benzo[d]imidazol-4-yl)-3-(2H-tetrazol-5-yl)benzene-1,2-disulfonamide]	0.7813	1.563	0.135	1.563	1.563	1.563	2.00	0.0956	0.626	
NC[C@@H](CO)NS(=O)(=O)c1ccc(-c2ccnc(N)c2)c(-c2nn[nH]n2)c1S(N)(=O)=O [Example 380, (S)—N1-(1-amino-3-hydroxypropan-2-yl)-4-(2-aminopyridin-4-yl)-3-(2H -tetrazol-5-yl)benzene-1,2-disulfonamide]	0.7813	0.7813	0.179	0.7813	0.4883	1.563	1.00	0.178	0.544	
